Laboratory results published in ChEMBL document CHEMBL1154930, “N1-Heterocyclic pyrimidinediones as non-nucleoside inhibitors of HIV-1 reverse transcriptase” (Bioorg Med Chem Lett, 2010).

How the values were obtained:
[1] = Half life in dog microsomes; assay type: ADME, Canis lupus familiaris, Microsome
[2] = Oral bioavailability in Beagle dog at 0.5 mg/kg, po; assay type: ADME, organism-based, Canis lupus familiaris; conditions: in vivo
[3] = Half life in Beagle dog at 0.5 mg/kg, iv or 0.5 mg/kg, po; assay type: ADME, organism-based, Canis lupus familiaris; conditions: in vivo
[4] = tested on: Human immunodeficiency virus 1; test: Antiviral activity against HIV1 harboring reverse transcriptase Y181C mutant infected in human MT2 cells; assay type: functional, organism-based; conditions: Human immunodeficiency virus 1, MT2
[5] = tested on: Human immunodeficiency virus 1; test: Antiviral activity against NNRTI-resistant HIV1 harboring reverse transcriptase K103N mutant infected in human MT2 cells; assay type: functional, organism-based; conditions: Human immunodeficiency virus 1, MT2
[6] = Volume of distribution at steady state in Beagle dog at 0.5 mg/kg, iv or 0.5 mg/kg, po; assay type: ADME, organism-based, Canis lupus familiaris; conditions: in vivo, read-out: Vdss
[7] = tested on: Human immunodeficiency virus 1; test: Antiviral activity against wild type HIV1 infected in human MT2 cells; assay type: functional, organism-based; conditions: Human immunodeficiency virus 1, MT2
Albumin = Albumin (Homo sapiens, UniProt P02768); test: Binding affinity to human serum albumin; assay type: ADME; conditions: read-out: PB (converted)
Albumin, sequence (P02768 whole entry): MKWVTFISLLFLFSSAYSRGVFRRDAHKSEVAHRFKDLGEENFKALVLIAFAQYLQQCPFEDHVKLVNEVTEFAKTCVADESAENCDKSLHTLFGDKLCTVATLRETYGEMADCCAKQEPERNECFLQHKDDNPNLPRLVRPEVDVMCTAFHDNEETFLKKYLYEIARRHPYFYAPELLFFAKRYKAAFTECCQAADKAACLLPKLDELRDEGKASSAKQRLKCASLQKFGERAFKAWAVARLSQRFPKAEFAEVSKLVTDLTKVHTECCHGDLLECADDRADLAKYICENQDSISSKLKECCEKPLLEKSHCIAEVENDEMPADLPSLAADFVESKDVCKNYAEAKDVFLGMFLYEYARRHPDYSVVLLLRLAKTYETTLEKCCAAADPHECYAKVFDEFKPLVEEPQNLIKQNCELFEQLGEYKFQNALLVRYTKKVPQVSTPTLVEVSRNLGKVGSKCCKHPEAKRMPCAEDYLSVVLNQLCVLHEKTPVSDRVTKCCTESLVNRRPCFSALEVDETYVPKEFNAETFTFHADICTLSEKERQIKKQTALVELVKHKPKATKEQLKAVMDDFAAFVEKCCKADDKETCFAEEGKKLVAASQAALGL

[8] = Half life in human microsomes; assay type: ADME, Microsome
[9] = Oral bioavailability in Beagle dog at 4 mg/kg, po; assay type: ADME, organism-based, Canis lupus familiaris; conditions: in vivo
[10] = Oral bioavailability in Beagle dog at 2 mg/kg, po; assay type: ADME, organism-based, Canis lupus familiaris; conditions: in vivo

Row | Structure (SMILES) | t1/2 [1] | bioavailability [2] [%] | half-life [3] [h] | EC50 [4] [nM] | EC50 [5] [nM] | Vd [6] [L/kg] | EC50 [7] [nM] | fraction unbound (Albumin) | t1/2 [8] | half-life [8] [h] | bioavailability [9] [%] | bioavailability [10] [%]
1 | Cc1cc(C#N)cc(C(=O)c2c(C(C)C)c(=O)[nH]c(=O)n2Cc2cc(F)nc(F)c2)c1 | Stable | 41.5 | 4.9 | 12 | 1.9 | 1.94 | 12.4 | 0.058 | Stable |  |  | 
2 | O=C1Nc2ccc(Cl)cc2[C@@](C#CC2CC2)(C(F)(F)F)O1 [EFAVIRENZ] |  |  |  | 2.6 | 35 |  |  |  |  | 1.63 |  | 
3 | Cc1cc(C#N)cc(C)c1Oc1nc(Nc2ccc(C#N)cc2)nc(N)c1Br [ETRAVIRINE] |  |  |  | 2.6 | 0.9 |  | 1.6 |  |  | 2.33 |  | 
4 | Cc1cc(C#N)cc(C(=O)c2c(C(C)C)c(=O)[nH]c(=O)n2Cc2cc(N)nc(F)c2)c1 |  |  | 3.3 | 6.7 | 1.6 | 1.8 | 3.4 | 0.064 |  | 0.75 | 96 | 
5 | Cc1cc(C#N)cc(C(=O)c2c(C(C)C)c(=O)[nH]c(=O)n2Cc2ccnc(F)c2)c1 |  |  | 4.7 | 16 | 2.4 | 1.61 | 6.2 | 0.123 |  | 4.68 |  | 80
6 | Cc1cc(C#N)cc(C(=O)c2c(C(C)C)c(=O)[nH]c(=O)n2Cc2cc(N)nc(F)c2F)c1 |  |  |  | 8.2 | 7.3 |  | 4.5 | 0.067 |  | 0.85 |  | 
